Measurements from ChEMBL document CHEMBL3751719, “D1-like receptors distinguishing thieno-azecine regioisomers” (Medchemcomm, 2015).
Blank lines part the entries; values can stand above or below the compound they belong to. The source made the active and inactive calls. The rule behind the calls is not given here.

Experiments:
D(4) dopamine receptor [1] = biological target: T1, D(4) dopamine receptor (Homo sapiens, UniProt P21917); assay: Binding affinity to human cloned D4 dopamine receptor incubated for 90 mins by radioligand binding assay
T1 sequence (P21917 whole entry): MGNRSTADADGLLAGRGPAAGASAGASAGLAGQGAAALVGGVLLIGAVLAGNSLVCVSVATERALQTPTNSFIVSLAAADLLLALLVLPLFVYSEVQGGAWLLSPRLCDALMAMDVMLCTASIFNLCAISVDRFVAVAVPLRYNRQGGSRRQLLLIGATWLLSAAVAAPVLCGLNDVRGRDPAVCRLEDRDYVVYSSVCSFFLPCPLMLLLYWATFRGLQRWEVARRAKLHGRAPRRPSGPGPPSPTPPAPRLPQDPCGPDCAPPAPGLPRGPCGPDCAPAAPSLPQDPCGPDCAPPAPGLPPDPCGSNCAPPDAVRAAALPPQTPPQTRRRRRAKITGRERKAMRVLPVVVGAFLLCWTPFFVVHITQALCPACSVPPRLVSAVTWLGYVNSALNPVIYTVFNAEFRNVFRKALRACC

D(1A) dopamine receptor [2] = biological target: T2, D(1A) dopamine receptor (Homo sapiens, UniProt P21728); assay: Displacement of [3H]SCH-23390 from human cloned D1 dopamine receptor incubated for 90 mins by radioligand binding assay
T2 sequence (P21728 whole entry): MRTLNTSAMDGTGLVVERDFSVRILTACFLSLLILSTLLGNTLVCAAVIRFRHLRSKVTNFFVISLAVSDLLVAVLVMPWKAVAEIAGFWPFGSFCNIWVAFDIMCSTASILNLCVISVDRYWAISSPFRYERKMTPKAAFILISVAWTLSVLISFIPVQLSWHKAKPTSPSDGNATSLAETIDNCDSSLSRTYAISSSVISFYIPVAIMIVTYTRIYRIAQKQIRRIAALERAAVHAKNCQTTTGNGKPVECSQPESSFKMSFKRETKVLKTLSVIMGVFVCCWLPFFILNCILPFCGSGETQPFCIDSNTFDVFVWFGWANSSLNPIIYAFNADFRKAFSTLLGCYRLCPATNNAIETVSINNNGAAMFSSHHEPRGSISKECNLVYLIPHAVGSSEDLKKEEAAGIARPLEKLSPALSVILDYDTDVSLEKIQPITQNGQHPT

D(3) dopamine receptor [3] = biological target: T3, D(3) dopamine receptor (Homo sapiens, UniProt P35462); assay: Binding affinity to human cloned D3 dopamine receptor incubated for 90 mins by radioligand binding assay
T3 sequence (P35462 whole entry): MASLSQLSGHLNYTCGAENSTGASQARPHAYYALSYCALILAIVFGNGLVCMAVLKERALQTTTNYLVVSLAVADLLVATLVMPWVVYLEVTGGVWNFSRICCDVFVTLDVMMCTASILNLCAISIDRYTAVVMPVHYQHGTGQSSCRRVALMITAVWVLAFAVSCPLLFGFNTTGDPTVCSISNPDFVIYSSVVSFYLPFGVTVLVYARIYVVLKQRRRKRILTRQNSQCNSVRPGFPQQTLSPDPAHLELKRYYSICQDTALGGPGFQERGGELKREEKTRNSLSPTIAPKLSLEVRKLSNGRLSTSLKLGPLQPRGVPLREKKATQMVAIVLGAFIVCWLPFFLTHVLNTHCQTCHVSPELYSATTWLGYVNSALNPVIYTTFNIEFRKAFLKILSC

D(1B) dopamine receptor [4] = biological target: T4, D(1B) dopamine receptor (Homo sapiens, UniProt P21918); assay: Binding affinity to human cloned D5 dopamine receptor incubated for 90 mins by radioligand binding assay
T4 sequence (P21918 whole entry): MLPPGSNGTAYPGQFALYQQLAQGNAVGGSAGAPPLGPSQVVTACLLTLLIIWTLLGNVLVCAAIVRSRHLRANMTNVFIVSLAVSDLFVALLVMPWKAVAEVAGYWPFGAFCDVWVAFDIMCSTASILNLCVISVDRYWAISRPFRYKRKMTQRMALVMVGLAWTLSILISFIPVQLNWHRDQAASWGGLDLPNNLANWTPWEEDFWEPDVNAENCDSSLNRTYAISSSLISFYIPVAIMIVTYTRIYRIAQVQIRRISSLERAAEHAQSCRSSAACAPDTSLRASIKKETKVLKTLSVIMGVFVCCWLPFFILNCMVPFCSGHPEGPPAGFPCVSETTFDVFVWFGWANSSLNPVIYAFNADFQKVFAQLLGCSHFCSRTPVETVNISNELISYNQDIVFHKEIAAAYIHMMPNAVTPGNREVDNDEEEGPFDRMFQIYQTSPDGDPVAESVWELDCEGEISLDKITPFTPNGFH

D(2) dopamine receptor [5] = biological target: T5, D(2) dopamine receptor (Homo sapiens, UniProt P14416); assay: Displacement of [3H]spiperone from human cloned D2 dopamine receptor incubated for 90 mins by radioligand binding assay
T5 sequence (P14416 whole entry): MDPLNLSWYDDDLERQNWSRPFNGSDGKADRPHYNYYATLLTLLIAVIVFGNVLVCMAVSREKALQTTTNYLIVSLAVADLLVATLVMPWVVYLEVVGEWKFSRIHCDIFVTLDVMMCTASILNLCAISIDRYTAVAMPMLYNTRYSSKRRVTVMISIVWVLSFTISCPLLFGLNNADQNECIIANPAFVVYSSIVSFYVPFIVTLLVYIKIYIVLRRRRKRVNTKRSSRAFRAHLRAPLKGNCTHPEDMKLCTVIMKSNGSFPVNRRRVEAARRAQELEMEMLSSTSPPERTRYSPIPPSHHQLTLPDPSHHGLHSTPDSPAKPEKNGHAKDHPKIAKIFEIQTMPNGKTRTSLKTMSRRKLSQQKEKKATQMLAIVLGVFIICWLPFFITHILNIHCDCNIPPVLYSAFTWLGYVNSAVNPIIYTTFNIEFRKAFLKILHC

Homo sapiens = organism: Homo sapiens; assay: Selectivity index, ratio of Ki for human cloned D1 dopamine receptor to Ki for human cloned D5 dopamine receptor
D(2) dopamine receptor [6] = biological target: T5, D(2) dopamine receptor; assay: Antagonist activity at human D2L dopamine receptor expressed in HEK293 cells assessed as inhibition of quinpirole-induced intracellular calcium level preincubated at 10 uM by oregon green staining based microplate fluorescence reader analysis; assay type: functional, cell-based
D(1B) dopamine receptor [7] = biological target: T4, D(1B) dopamine receptor; assay: Antagonist activity at human D5 dopamine receptor expressed in HEK293 cells assessed as inhibition of SKF38393-induced intracellular calcium level preincubated at 10 uM by oregon green staining based microplate fluorescence reader analysis; assay type: functional, cell-based
D(1A) dopamine receptor [8] = biological target: T2, D(1A) dopamine receptor; assay: Antagonist activity at human D1 dopamine receptor expressed in HEK293 cells assessed as inhibition of SKF38393-induced intracellular calcium level preincubated at 10 uM by oregon green staining based microplate fluorescence reader analysis; assay type: functional, cell-based
D(1B) dopamine receptor [9] = biological target: T4, D(1B) dopamine receptor; assay: Displacement of [3H]SCH-23390 from human cloned D5 dopamine receptor expressed in HEKT cells incubated for 90 mins by scintillation counting based radioligand binding assay; assay type: cell-based
D(4) dopamine receptor [10] = biological target: T1, D(4) dopamine receptor
D(3) dopamine receptor [11] = biological target: T3, D(3) dopamine receptor; assay: Displacement of [3H]N-methylspiperone from human cloned D3 dopamine receptor expressed in HEKT cells incubated for 90 mins by scintillation counting based radioligand binding assay; assay type: cell-based
D(1A) dopamine receptor [12] = biological target: T2, D(1A) dopamine receptor; assay: Displacement of [3H]SCH-23390 from human cloned D1 dopamine receptor expressed in HEKT cells incubated for 90 mins by scintillation counting based radioligand binding assay; assay type: cell-based

- Ki (D(4) dopamine receptor [1]): 188 nM
- Ratio Ki (Homo sapiens): 20
- inhibition (D(2) dopamine receptor [6]): Active
- Ki (D(1A) dopamine receptor [2]): 60 nM
- Ki (D(3) dopamine receptor [3]): 24 nM
- inhibition (D(1B) dopamine receptor [7]): Active
- Ki (D(1B) dopamine receptor [4]): 3 nM
- inhibition (D(1A) dopamine receptor [8]): Active
- Ki (D(2) dopamine receptor [5]): 45 nM
SMILES: CN1CCc2ccccc2Cc2sccc2CC1

- Ki (D(4) dopamine receptor [1]): 72 nM
- Ratio Ki (Homo sapiens): 20
- inhibition (D(2) dopamine receptor [6]): Active
- Ki (D(1A) dopamine receptor [2]): 40 nM
- Ki (D(3) dopamine receptor [3]): 18 nM
- inhibition (D(1B) dopamine receptor [7]): Active
- Ki (D(1B) dopamine receptor [4]): 1.9 nM
- inhibition (D(1A) dopamine receptor [8]): Active
- Ki (D(2) dopamine receptor [5]): 1.5 nM
SMILES: CN1CCc2ccccc2Cc2sc3ccccc3c2CC1

- Ki (D(4) dopamine receptor [10]): 9 nM
- Ki (D(3) dopamine receptor [11]): 9.4 nM
- Ki (D(1A) dopamine receptor [12]): 8.9 nM
SMILES: CN1CC2c3ccccc3Oc3ccc(Cl)cc3C2C1 (configuration not stated) [ASENAPINE]

- Ki (D(4) dopamine receptor [1]): > 1000 nM
- Ki (D(1A) dopamine receptor [2]): > 1000 nM
- Ki (D(3) dopamine receptor [3]): > 1000 nM
- Ki (D(1B) dopamine receptor [4]): > 1000 nM
- Ki (D(2) dopamine receptor [5]): > 1000 nM
SMILES: CCOC(=O)N1CCc2ccccc2Cc2sccc2CC1

More lines, now with the values behind:

SMILES: CCOC(=O)N1CCc2ccccc2Cc2ccsc2CC1
- Ki (D(4) dopamine receptor [1]): > 1000 nM
- Ki (D(1A) dopamine receptor [2]): > 1000 nM
- Ki (D(3) dopamine receptor [3]): > 1000 nM
- Ki (D(1B) dopamine receptor [4]): > 1000 nM
- Ki (D(2) dopamine receptor [5]): > 1000 nM

SMILES: CCOC(=O)N1CCc2ccccc2Cc2sc3ccccc3c2CC1
- Ki (D(4) dopamine receptor [1]): > 1000 nM
- Ki (D(1A) dopamine receptor [2]): > 1000 nM
- Ki (D(3) dopamine receptor [3]): > 1000 nM
- Ki (D(1B) dopamine receptor [4]): > 1000 nM
- Ki (D(2) dopamine receptor [5]): > 1000 nM

SMILES: Cc1cc2c(s1)Nc1ccccc1N=C2N1CCN(C)CC1 [OLANZAPINE]
- Ki (D(1B) dopamine receptor [9]): 90 nM
